Test results: patent US7122668B2, “Platinum complexes and their use in therapy” (priority 2002, dated 2006)

Key:
plasmid pS16-hGH DNA = test: Determination of Pt-DNA adducts by EtBr fluorescence; format: binding; conditions: DNA modified 24 hr
Description: A plasmid (4.8 kbp) containing a gene coding for human growth hormone, plasmid pS16-hGH, was prepared as previously described^(23). The freshly prepared DNA was analyzed by agarose gel (1%) electrophoresis using post-staining with SYBR Green I fluorescent dye (Molecular Probes, Eugene, Oreg.). […] The ratio of absorbance at 260 nm to that at 280 nm was always between 1.8 and 1.9.
DNA were modified by the platinum complexes in 10 mM NaClO4 (pH 7.0) at 37° C. in the dark for 24 hr. Measurements of EtBr fluorescence were performed on an LS50B luminescence spectrometer (Perkin Elmer, Norwalk, Conn.). Fluorescence measurements of DNA modified by platinum in the presence of EtBr were performed using the excitation wavelength of 546 nm (slit 10 run) and emission wavelength of 590 nm (slit 10 nm) at 25° C. The concentrations were 0.01 mg/ml for DNA and 0.04 mg/ml for EtBr, which corresponded to the saturation of all intercalation sites of EtBr in DNA.
EtBr, as the fluorescent probe, was used to distinguish between perturbations induced in DNA by adducts of platinum (II) compounds^(14). Binding of EtBr by intercalation is blocked in a stoichiometric manner by formation of the bifunctional adducts, as of Cis-Pt, which results in a loss of fluorescence intensity. On the other hand, formation of monofunctional adducts results only in a slight decrease of EtBr fluorescence.

C-26 cells [1] = format: cell-based; conditions: cell lines of Table 1
Description: A human ovarian carcinoma cell line (OV-1063), established at the Hadassah University hospital and human colon carcinoma cell line (C-26) were maintained in RPMI-1640 medium supplemented with 10% FCS, antibiotics and glutamine. All culture medium components were purchased from Biological Industries (Beit-HaEmek, Israel). Both cell lines were maintained at 37° C. in a water-jacketed CO2 incubator.
Cytotoxicity of the synthesized complexes was tested by the methylene blue (MB) staining assay^(19). A fixed number of exponentially growing cells in 200 μl medium were plated in 96-microwell, flat-bottomed plates. For each of the complexes tested, 4 well were used. Following 24 hr in culture, 20 μl of different concentration of the complexes were added to each well containing untreated cells. Normal saline was added to the controls. Cells were exposed to complexes for 4, 24, or 72 hr. At the end of exposure for a fixed time interval, the treated cells as well as parallel control cells were washed and incubation was continued in fresh medium until termination of the experiment. Following 72 hr of growth, cells were fixed by adding 50 μl of 2.5% of glutaraldehyde to each well for 15 min. Fixed cells were rinsed 10 times with fresh de-ionized water and once with borate buffer (0.1 M, pH=8.5), dried and stained with MB (100 μl of 1% solution in 0.1 M borate buffer, pH=8.5) for 1 hr at room temperature. Stained cells were rinsed thoroughly with de-ionized water to remove any non-cell-bound die and then dried. The MB bound to the fixed cells was extracted by incubation at 37° C. with 200 μl of 0.1N HCl for 1 hr, and the net optical density (OD) of the die in each well was determined by a plate spectrophotometer (Labsystems Multyskan BICHROMATIC, Finland) at 620 nm.

OV-1063 cells = test: Determination of Pt-DNA adducts by FAAS; format: cell-based, human
Description: (§1) Cells were seeded for 48 hr before one of the drugs was added to the culture medium. After 24 hr of exposure, the complexes were removed and the cells washed twice with ice-cold PBS and pelleted. DNA from platinum-containing material (2*10^6 cells) was extracted from the cell pellet by QIAamp DNA Blood Kit (QIAGEN, Germany) according to the manufacture instructions. DNA yield was determined by measuring the concentration of DNA in the eluate by absorbance at 260 nm.

C-26 cells [2] = test: Determination of Pt-DNA adducts by FAAS; format: cell-based, human
Description: as §1

**Q.** What does the source list for `C1CCNCC1.Cc1ccncc1.[Cl][Pt][Cl]` [Complex 5, trans-[PtCl2(4-picoline)(piperidine)]]?
**A.** decrease of EtBr fluorescence intensity by DNA adducts (plasmid pS16-hGH DNA): lower than that of cisplatin, however, greater than that of transplatin; folds less active than cisplatin (C-26 cells [1]): 3 folds; Pt-DNA adducts (OV-1063 cells; OV-1063, 24 hr): 41 pmol Pt/50 μg DNA; DNA platination relative to Cis-Pt (OV-1063 cells; OV-1063 cells): the same; Pt-DNA adducts (C-26 cells [2]; C-26, 24 hr): 51 pmol Pt/50 μg DNA; DNA platination relative to Cis-Pt (C-26 cells [2]; C-26 cells): the same
